This data set in a line: Cytotoxicity against human MCF7 cells incubated for 48 hrs by MTT assay. It is filed as toxicity, cell-based. (Tetrazolium assays rely on reduction of a dye to a coloured formazan, in cell work by metabolically active cells.)

The values below come from ChEMBL document CHEMBL5126502, “Promising applications of steroid сonjugates for cancer research and treatment” (Eur J Med Chem, 2021).

As usually defined, the IC50 is the midpoint of a concentration-inhibition curve. Higher therefore signals a need for much substance.

`C[C@@H]1CC[C@@]2(OC1)O[C@H]1C[C@H]3[C@@H]4CC[C@H]5C[C@@H](OC(=O)[C@@H](N)CO)CC[C@]5(C)[C@H]4CC[C@]3(C)[C@H]1[C@@H]2C` had a half-inhibitory concentration (IC50) at 48 h of 1500 nM.
